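The compound was tested at five concentrations on cells cultured in 96-well plates, with a 48-hour exposure period. The concentration for 50% growth inhibition is given as GI50.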 Activity calls are given as the source filed them. Rule as the data show it: active = GI50 up to about 1.1 µM and inactive = higher.
What was measured:
Test in all cases: growth of human tumour cells (NCI), 48 h
CCRF-CEM = tested on: CCRF-CEM
KM12 = tested on: KM12
DU-145 = tested on: DU-145
RPMI-8226 = tested on: RPMI-8226
CAKI-1 = tested on: CAKI-1
HCT-116 = tested on: HCT-116
UACC-257 = tested on: UACC-257
U-251 = tested on: U-251
M14 = tested on: M14
SF-268 = tested on: SF-268
IGROV-1 = tested on: IGROV-1
UO-31 = tested on: UO-31
NCI-H460 = tested on: NCI-H460
SK-OV-3 = tested on: SK-OV-3
OVCAR-5 = tested on: OVCAR-5
RXF 393 = tested on: RXF 393
SF-539 = tested on: SF-539
MDA-MB-231 = tested on: MDA-MB-231
HL-60 = tested on: HL-60
SN12C = tested on: SN12C

SMILES	GI50 (CCRF-CEM)	GI50 (KM12)	GI50 (DU-145)	GI50 (RPMI-8226)	GI50 (CAKI-1)	GI50 (HCT-116)	GI50 (UACC-257)	GI50 (U-251)	GI50 (M14)	GI50 (SF-268)	GI50 (IGROV-1)	GI50 (UO-31)	GI50 (NCI-H460)	GI50 (SK-OV-3)	GI50 (OVCAR-5)	GI50 (RXF 393)	GI50 (SF-539)	GI50 (MDA-MB-231)	GI50 (HL-60)	GI50 (SN12C)
N#C/C(=C\c1ccc([N+](=O)[O-])o1)c1n[nH]c(Cc2ccccc2)n1	0.265 µM (active)	2.19 µM (inactive)	1.57 µM (inactive)	0.335 µM (active)	1.95 µM (inactive)	0.232 µM (active)	1.91 µM (inactive)	2.81 µM (inactive)	1.63 µM (inactive)	0.641 µM (active)	1.4 µM (inactive)	2.66 µM (inactive)	3.3 µM (inactive)	4.52 µM (inactive)	1.64 µM (inactive)	0.423 µM (active)	1.32 µM (inactive)	1.57 µM (inactive)	3.06 µM (inactive)	1.49 µM (inactive)
CSc1cccc(NC(=O)OC2CCCCCCCCCCC2)c1	16.4 µM (inactive)	13.3 µM (inactive)	31.8 µM (inactive)	14.7 µM (inactive)	17.6 µM (inactive)	15.1 µM (inactive)	16 µM (inactive)	18.8 µM (inactive)	22.3 µM (inactive)	29.8 µM (inactive)	33.4 µM (inactive)	7.91 µM (inactive)	16.4 µM (inactive)	16.6 µM (inactive)	30.3 µM (inactive)	18.8 µM (inactive)	24.4 µM (inactive)	23.6 µM (inactive)	14.3 µM (inactive)	15.5 µM (inactive)
Cn1c(=O)c2c(ncn2CN2CCN(Cn3cnc4c3c(=O)n(C)c(=O)n4C)CC2)n(C)c1=O	21.9 µM (inactive)	92.5 µM (inactive)	45.7 µM (inactive)	22.7 µM (inactive)	77.3 µM (inactive)	16.9 µM (inactive)	47.1 µM (inactive)	> 100 µM (inactive)	38.5 µM (inactive)	50.9 µM (inactive)	78.5 µM (inactive)	46.1 µM (inactive)	19.2 µM (inactive)	> 100 µM (inactive)	> 100 µM (inactive)	20.2 µM (inactive)	56.2 µM (inactive)	> 100 µM (inactive)	23 µM (inactive)	46.9 µM (inactive)
CCOC(=O)/C=C(/C(=O)OCC)n1cc(C)c(=O)n(Cc2cn(COCCOC(C)=O)nn2)c1=O	0.984 µM (active)	23.1 µM (inactive)	36.3 µM (inactive)	17.9 µM (inactive)	9.59 µM (inactive)	20.7 µM (inactive)	20.7 µM (inactive)	26.3 µM (inactive)	46 µM (inactive)	19.5 µM (inactive)	17.2 µM (inactive)	1.07 µM (active)	> 40.6 µM (inactive)	> 100 µM (inactive)	27.8 µM (inactive)	23.7 µM (inactive)	15.9 µM (inactive)	28.4 µM (inactive)	8.57 µM (inactive)	25.8 µM (inactive)
COC(=O)c1nc2c3c(cccc3c1C(=O)OC)Nc1ccccc1-2	13.2 µM (inactive)	28.2 µM (inactive)	41.6 µM (inactive)	53 µM (inactive)	50.2 µM (inactive)	25.2 µM (inactive)	61.4 µM (inactive)	32.1 µM (inactive)	44.8 µM (inactive)	38.5 µM (inactive)	32 µM (inactive)	18.8 µM (inactive)	25.7 µM (inactive)	24 µM (inactive)	> 100 µM (inactive)	35.7 µM (inactive)	52.7 µM (inactive)	23.8 µM (inactive)	53 µM (inactive)	33.4 µM (inactive)
Cc1cc(=O)[nH]c2c1C(=O)c1c(C)cc(=O)n(C)c1C2=O	0.321 µM (active)	0.0678 µM (active)	0.0238 µM (active)	0.33 µM (active)	0.0678 µM (active)	0.1 µM (active)	0.0152 µM (active)	0.11 µM (active)	0.0147 µM (active)	0.129 µM (active)	0.202 µM (active)	0.167 µM (active)	0.187 µM (active)	0.182 µM (active)	0.166 µM (active)	0.138 µM (active)	0.0208 µM (active)	0.303 µM (active)	0.153 µM (active)	0.074 µM (active)
Clc1ccc2c(NCCCCN3OC3c3ccccc3)ccnc2c1 (stereo not given)	2.15 µM (inactive)	7.5 µM (inactive)	10.4 µM (inactive)	2.92 µM (inactive)	8.77 µM (inactive)	2.06 µM (inactive)	18.1 µM (inactive)	3.4 µM (inactive)	3.23 µM (inactive)	8.07 µM (inactive)	9.27 µM (inactive)	14.8 µM (inactive)	6.5 µM (inactive)	19.6 µM (inactive)	14.4 µM (inactive)	5.55 µM (inactive)	1.98 µM (inactive)	2.27 µM (inactive)	< 0.01 µM (active)	11.1 µM (inactive)
CC1=C(C(=O)N(C(C)C)C(C)C)CC(C(=O)N(C(C)C)C(C)C)=C(C)N1	> 100 µM (inactive)	> 100 µM (inactive)	> 100 µM (inactive)	> 100 µM (inactive)	> 100 µM (inactive)	> 100 µM (inactive)	> 100 µM (inactive)	> 100 µM (inactive)	> 100 µM (inactive)	> 100 µM (inactive)	> 100 µM (inactive)	> 100 µM (inactive)	> 100 µM (inactive)	> 100 µM (inactive)	> 100 µM (inactive)	> 100 µM (inactive)	> 100 µM (inactive)	54.1 µM (inactive)	> 100 µM (inactive)	> 100 µM (inactive)
C[C@H]1[C@H](C)CC[C@]2(C(=O)OC3OC(CO)C(O)C(O)C3O)CC[C@]3(C)C(=CC[C@@H]4[C@@]5(C)C[C@@H](O)[C@@H]6OC(=O)c7cc(O)c(O)c(O)c7-c7c(cc(O)c(O)c7O)C(=O)OC[C@]6(CO)[C@@H]5CC[C@]43C)[C@H]12 (stereo not given in full)	20.8 µM (inactive)	24.2 µM (inactive)	> 100 µM (inactive)	66.7 µM (inactive)	17 µM (inactive)	41.2 µM (inactive)	> 78.3 µM (inactive)	16.4 µM (inactive)	97.9 µM (inactive)	> 83.4 µM (inactive)	> 86.3 µM (inactive)	56.9 µM (inactive)	23.7 µM (inactive)	31.7 µM (inactive)	> 67.9 µM (inactive)	> 91.4 µM (inactive)	> 100 µM (inactive)	12.4 µM (inactive)	25.9 µM (inactive)	30.5 µM (inactive)
CN(C)CC1CCCCCC(Br)C1=O (stereo not given)	0.352 µM (active)	18.4 µM (inactive)	12.1 µM (inactive)	0.61 µM (active)	6.59 µM (inactive)	2.05 µM (inactive)	9.93 µM (inactive)	19.6 µM (inactive)	15.6 µM (inactive)	24.2 µM (inactive)	28.2 µM (inactive)	13.6 µM (inactive)	17.7 µM (inactive)	> 100 µM (inactive)	17.2 µM (inactive)	15.4 µM (inactive)	17.3 µM (inactive)	16.1 µM (inactive)	6.12 µM (inactive)	16.8 µM (inactive)
Cc1ccc2c(c1)C(=O)C1(C2)Cc2cccc(C)c2C1=O (stereo not given)	> 100 µM (inactive)	> 100 µM (inactive)	> 100 µM (inactive)	> 100 µM (inactive)	0.0418 µM (active)	> 100 µM (inactive)	> 100 µM (inactive)	> 100 µM (inactive)	> 100 µM (inactive)	> 100 µM (inactive)	> 100 µM (inactive)	4.41 µM (inactive)	> 100 µM (inactive)	> 100 µM (inactive)	> 100 µM (inactive)	> 100 µM (inactive)	> 100 µM (inactive)	> 100 µM (inactive)	> 100 µM (inactive)	> 100 µM (inactive)
C=C1c2nc3ccccc3n2C=C(c2ccc(Cl)cc2)N1c1ccc(OCCN2CCCCC2)cc1	> 45 µM (inactive)	> 45 µM (inactive)	> 45 µM (inactive)	2.43 µM (inactive)	> 45 µM (inactive)	> 45 µM (inactive)	0.843 µM (active)	> 45 µM (inactive)	> 45 µM (inactive)	1.63 µM (inactive)	> 45 µM (inactive)	> 45 µM (inactive)	1.72 µM (inactive)	> 45 µM (inactive)	> 45 µM (inactive)	> 45 µM (inactive)	> 100 µM (inactive)	> 45 µM (inactive)	5.01 µM (inactive)	> 45 µM (inactive)
COc1cc(C[C@@H](C)N)cc(OC)c1	> 100 µM (inactive)	> 100 µM (inactive)	> 100 µM (inactive)	> 100 µM (inactive)	> 100 µM (inactive)	> 100 µM (inactive)	> 100 µM (inactive)	> 100 µM (inactive)	> 100 µM (inactive)	> 100 µM (inactive)	> 100 µM (inactive)	> 100 µM (inactive)	> 100 µM (inactive)	> 100 µM (inactive)	> 100 µM (inactive)	43.7 µM (inactive)	> 100 µM (inactive)	> 100 µM (inactive)	> 100 µM (inactive)	> 100 µM (inactive)
CCCCCCCCCCCC[C@@H](O)[C@H]1CC[C@H]([C@H](O)CCCC[C@H](O)CCCCC[C@@H](O)CC2=C[C@H](C)OC2=O)O1	1.18 µM (inactive)	3.35 µM (inactive)	6.4 µM (inactive)	0.362 µM (active)	2.64 µM (inactive)	0.135 µM (active)	0.0168 µM (active)	2.78 µM (inactive)	2.45 µM (inactive)	1.86 µM (inactive)	0.61 µM (active)	1.05 µM (active)	2.07 µM (inactive)	4.03 µM (inactive)	1.18 µM (inactive)	3.55 µM (inactive)	2.97 µM (inactive)	3.31 µM (inactive)	0.103 µM (active)	3.78 µM (inactive)

From ChEMBL document CHEMBL1201862, “PubChem BioAssay data set” (2004)
